The values below are quoted from earlier work in article PMC3019532 (Current radiopharmaceuticals, 2010).

The test system of series [1] is CA20948 rat pancreatic tumor cells. Particulars: 1 h of incubation with 1 × 10^5 CA20948 cells; cited from earlier work.
For series [2] the following is noted: rat, in vivo; cited from earlier work.

Consider “[^177Lu-DOTA^0,Tyr^3]octreotate [[^177Lu]DOTA-TATE]”, for which, in series [1], the dose internalized entry is on record as “about 0.03%”. The “metabolism, form present in urine” value in series [2] is recorded as “predominantly intact form”.
